These are literature values, as cited in article PMC9516332 (Frontiers in Oncology, 2022).

For data set [1], the target named is panel of 255 wild-type kinases (Homo sapiens, UniProt Q9Y6E0). Particulars: MST3, 1 µmol/L single concentration, cited from earlier work.
Data set [2] concerns the target panel of 255 wild-type kinases (Homo sapiens, UniProt Q15418). Particulars: kinase RSK1, 1 µmol/L single concentration, cited from earlier work.
For data set [3], the target named is panel of 255 wild-type kinases (Homo sapiens, UniProt Q14012). The conditions noted are these: CaMK1α kinase assay, 1 µmol/L single concentration, cited from earlier work.
Data set [4] addresses panel of 255 wild-type kinases (Homo sapiens, UniProt P08631). The conditions noted are these: kinase HCK, 1 µmol/L single concentration, cited from earlier work.
Data set [5] deals with panel of 255 wild-type kinases (Homo sapiens, UniProt P51812). Particulars: kinase RSK2, 1 µmol/L single concentration, cited from earlier work.
For data set [6], the target named is panel of 255 wild-type kinases (Homo sapiens, UniProt Q13627). The conditions noted are these: kinase DYRK1A, 1 µmol/L single concentration, cited from earlier work.
Data set [7] addresses T1, panel of 255 wild-type kinases (Homo sapiens, UniProt Q12851).
T1 sequence (Q12851 1-820): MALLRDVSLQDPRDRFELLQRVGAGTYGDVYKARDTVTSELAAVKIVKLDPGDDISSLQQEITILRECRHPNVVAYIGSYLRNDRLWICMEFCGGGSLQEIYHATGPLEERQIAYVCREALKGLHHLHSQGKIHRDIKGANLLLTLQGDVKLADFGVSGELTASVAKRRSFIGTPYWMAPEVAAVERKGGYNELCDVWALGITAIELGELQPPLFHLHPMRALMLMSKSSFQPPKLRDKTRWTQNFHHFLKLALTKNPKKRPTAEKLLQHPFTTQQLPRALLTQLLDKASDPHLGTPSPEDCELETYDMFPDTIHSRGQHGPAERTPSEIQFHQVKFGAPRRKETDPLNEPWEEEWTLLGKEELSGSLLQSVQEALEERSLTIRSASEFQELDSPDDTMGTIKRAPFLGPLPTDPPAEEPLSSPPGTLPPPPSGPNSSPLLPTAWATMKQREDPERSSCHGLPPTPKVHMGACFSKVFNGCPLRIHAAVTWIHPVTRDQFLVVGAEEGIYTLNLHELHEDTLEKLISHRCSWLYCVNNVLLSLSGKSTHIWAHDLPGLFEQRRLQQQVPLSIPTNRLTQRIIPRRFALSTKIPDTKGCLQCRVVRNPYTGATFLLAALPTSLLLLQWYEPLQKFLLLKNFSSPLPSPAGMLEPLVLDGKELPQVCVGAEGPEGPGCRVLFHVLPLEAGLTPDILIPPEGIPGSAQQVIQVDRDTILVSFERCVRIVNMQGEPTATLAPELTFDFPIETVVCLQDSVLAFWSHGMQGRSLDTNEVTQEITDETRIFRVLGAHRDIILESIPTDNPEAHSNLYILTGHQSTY
Particulars: kinase MAP4K2, 1 µmol/L single concentration, cited from earlier work.

The target in data set [8] is panel of 255 wild-type kinases (Homo sapiens, UniProt Q9H0K1). The conditions noted are these: kinase QIK, 1 µmol/L single concentration, cited from earlier work.
The target in data set [9] is panel of 255 wild-type kinases (Homo sapiens, UniProt Q16539). The conditions noted are these: p38α, 1 µmol/L single concentration, cited from earlier work.
Data set [10] concerns the target panel of 255 wild-type kinases (Homo sapiens, UniProt O43683). Particulars: BUB1/BUB3 kinase assay; 1 µmol/L single concentration; ref DOI: 10.1158/1535-7163.MCT-18-0877; cited from earlier work.
Data set [11] concerns the target panel of 255 wild-type kinases (Homo sapiens, UniProt Q9P0L2). The conditions noted are these: MARK1, 1 µmol/L single concentration, cited from earlier work.
Data set [12] addresses panel of 255 wild-type kinases (Homo sapiens, UniProt P06493). Particulars: CDC2/CycB1 kinase assay, 1 µmol/L single concentration, cited from earlier work.
Data set [13] has as its target panel of 255 wild-type kinases (Homo sapiens, UniProt Q16512). Particulars: kinase PKN1, 1 µmol/L single concentration, cited from earlier work.
The target of data set [14] is panel of 255 wild-type kinases (Homo sapiens, UniProt Q00526). The conditions noted are these: CDK3/CycE1 kinase assay, 1 µmol/L single concentration, cited from earlier work.
In data set [15] the target is panel of 255 wild-type kinases (Homo sapiens, UniProt O95819). Particulars: kinase HGK, 1 µmol/L single concentration, cited from earlier work.
The target in data set [16] is panel of 255 wild-type kinases (Homo sapiens, UniProt Q9UM73). Particulars: ALK kinase assay, 1 µmol/L single concentration, cited from earlier work.
Setting [17] is: ref DOI: 10.1158/1535-7163.MCT-18-0877.
Setting [18] is: ref DOI: 10.1371/journal.pone.0092146.

Like-named read-outs stand apart in the source and are kept apart here.

Take `CCc1cc2c(cc1N1CCC(N3CCOCC3)CC1)C(C)(C)c1[nH]c3cc(C#N)ccc3c1C2=O` [alectinib]: the “%-inhibition, MST3” value in data set [1] (setting [17]) is reported as -2.37%. The “%-inhibition at 1 µmol/L, RSK1” value in [2] (setting [17]) is listed as 15%. The “%-inhibition CaMK1α” value in [3] (setting [17]) is 2.11%. For the same molecule, in [4] (setting [17]), the “%-inhibition at 1 µmol/L, HCK” value was 43%. Moreover, the “%-inhibition at 1 µmol/L, RSK2” value in data set [5] (setting [17]) was 14%. Also, the “%-inhibition at 1 µmol/L, DYRK1A” value in data set [6] (setting [17]) was 4%. Besides, in data set [7] (setting [17]), the “%-inhibition at 1 µmol/L, MAP4K2” value was 7.56%. In addition, in data set [8] (setting [17]), the “%-inhibition at 1 µmol/L, QIK” value is 3%. The “%-inhibition, p38α” value in [9] (setting [17]) was -0.471%. Moreover, the “%-inhibition BUB1/BUB3” value in data set [10] is 2%. In addition, the “%-inhibition, MARK1” value in data set [11] (setting [17]) is 8%. Also, in [12] (setting [17]), the “%-inhibition CDC2/CycB1” value is reported as 3.54%. For the same molecule, the “%-inhibition at 1 µmol/L, PKN1” value in [13] (setting [17]) was 13%. For the same molecule, the “%-inhibition CDK3/CycE1” value in data set [14] (setting [17]) is recorded as -2.74%. In [15] (setting [17]), the “%-inhibition at 1 µmol/L, HGK” value is recorded as 20%.

Consider `C[C@@H](Oc1cc(-c2cnn(C3CCNCC3)c2)cnc1N)c1c(Cl)ccc(F)c1Cl` [crizotinib], for which the “%-inhibition, MST3” value in data set [1] (setting [18]) is 11%. The “%-inhibition at 1 µmol/L, RSK1” value in data set [2] (setting [18]) was -5%. In data set [3] (setting [18]), the “%-inhibition CaMK1α” value was 0.734%. Besides, the “%-inhibition at 1 µmol/L, HCK” value in data set [4] (setting [18]) is listed as 26%. For the same molecule, in data set [5] (setting [18]), the “%-inhibition at 1 µmol/L, RSK2” value is 0.217%. Further, the “%-inhibition at 1 µmol/L, DYRK1A” value in data set [6] (setting [18]) is recorded as -13%. Besides, the “%-inhibition at 1 µmol/L, QIK” value in data set [8] (setting [18]) was 38%. The “%-inhibition, p38α” value in [9] (setting [18]) is recorded as -2.27%. For the same molecule, the “%-inhibition, MARK1” value in [11] (setting [18]) was 27%. Besides, in [12] (setting [18]), the “%-inhibition CDC2/CycB1” value was 19%. For the same molecule, the “%-inhibition at 1 µmol/L, PKN1” value in data set [13] (setting [18]) is 23%. Also, in [14] (setting [18]), the “%-inhibition CDK3/CycE1” value was -5.68%.

As to `CC(C)(C)c1nc(-c2cccc(NS(=O)(=O)c3c(F)cccc3F)c2F)c(-c2ccnc(N)n2)s1` [dabrafenib], the “%-inhibition, MST3” value in [1] (setting [18]) is reported as 0.532%. For the same molecule, the “%-inhibition at 1 µmol/L, HCK” value in [4] (setting [18]) was 57%. Further, the “%-inhibition at 1 µmol/L, DYRK1A” value in [6] (setting [18]) is given as 16%. In addition, the “%-inhibition at 1 µmol/L, MAP4K2” value in data set [7] (setting [18]) was 8%. The “%-inhibition at 1 µmol/L, QIK” value in data set [8] (setting [18]) is given as 80%. Also, the “%-inhibition, MARK1” value in [11] (setting [18]) is recorded as -15%. Further, the “%-inhibition at 1 µmol/L, PKN1” value in data set [13] (setting [18]) is given as -2.84%. The “%-inhibition at 1 µmol/L, HGK” value in data set [15] (setting [18]) is reported as 7%.

Take `CO[C@@H]1[C@H](N(C)C(=O)c2ccccc2)C[C@H]2O[C@]1(C)n1c3ccccc3c3c4c(c5c6ccccc6n2c5c31)C(=O)NC4` [midostaurin]: the “%-inhibition at 1 µmol/L, RSK1” value in data set [2] (setting [17]) was 98%. Further, the “%-inhibition at 1 µmol/L, RSK2” value in data set [5] (setting [17]) is reported as 99%. Moreover, the “%-inhibition ALK” value in data set [16] (setting [17]) was 87%. The “%-inhibition at 1 µmol/L, MAP4K2” value in [7] (setting [17]) is 94%. In addition, in data set [9] (setting [17]), the “%-inhibition, p38α” value is -1.38%. Besides, in data set [10], the “%-inhibition BUB1/BUB3” value is reported as 6.4%. The “%-inhibition CDC2/CycB1” value in data set [12] (setting [17]) was 22%. The “%-inhibition CDK3/CycE1” value in data set [14] (setting [17]) is given as 11%. Also, the “%-inhibition at 1 µmol/L, HGK” value in data set [15] (setting [17]) is listed as 97%.

Turning to `CC(=O)Nc1cccc(-n2c(=O)n(C3CC3)c(=O)c3c(Nc4ccc(I)cc4F)n(C)c(=O)c(C)c32)c1` [trametinib], in data set [1] (setting [18]), the “%-inhibition, MST3” value is listed as 1.75%. The “%-inhibition at 1 µmol/L, RSK1” value in data set [2] (setting [18]) is recorded as -10%. The “%-inhibition CaMK1α” value in data set [3] (setting [18]) is reported as -2%. Besides, in [4] (setting [18]), the “%-inhibition at 1 µmol/L, HCK” value was -2.84%. Moreover, the “%-inhibition at 1 µmol/L, RSK2” value in data set [5] (setting [18]) was -1.76%. For the same molecule, the “%-inhibition at 1 µmol/L, DYRK1A” value in [6] (setting [18]) is listed as -1.23%. For the same molecule, the “%-inhibition ALK” value in data set [16] (setting [18]) was -2.82%. Also, the “%-inhibition at 1 µmol/L, MAP4K2” value in [7] (setting [18]) is reported as 4%. Moreover, in data set [8] (setting [18]), the “%-inhibition at 1 µmol/L, QIK” value is on record as -4.66%. For the same molecule, the “%-inhibition, p38α” value in data set [9] (setting [18]) is given as -4%. Besides, the “%-inhibition, MARK1” value in data set [11] (setting [18]) was -17%. Besides, in data set [12] (setting [18]), the “%-inhibition CDC2/CycB1” value is on record as 8%. In data set [13] (setting [18]), the “%-inhibition at 1 µmol/L, PKN1” value is given as 3.71%. Besides, the “%-inhibition CDK3/CycE1” value in data set [14] (setting [18]) is on record as 0.16%. For the same molecule, the “%-inhibition at 1 µmol/L, HGK” value in data set [15] (setting [18]) is -3.71%.

`CCCS(=O)(=O)Nc1ccc(F)c(C(=O)c2c[nH]c3ncc(-c4ccc(Cl)cc4)cc23)c1F` [vemurafenib]: the “%-inhibition, MST3” value in data set [1] (setting [18]) is -1.73%. In addition, in [2] (setting [18]), the “%-inhibition at 1 µmol/L, RSK1” value is listed as -1.32%. The “%-inhibition CaMK1α” value in [3] (setting [18]) is -3.18%. Besides, in data set [4] (setting [18]), the “%-inhibition at 1 µmol/L, HCK” value is 30%. The “%-inhibition at 1 µmol/L, RSK2” value in [5] (setting [18]) is -2.31%. In addition, in [6] (setting [18]), the “%-inhibition at 1 µmol/L, DYRK1A” value is -18%. The “%-inhibition ALK” value in [16] (setting [18]) is reported as 1.14%. Further, the “%-inhibition at 1 µmol/L, MAP4K2” value in data set [7] (setting [18]) is reported as 43%. For the same molecule, in [8] (setting [18]), the “%-inhibition at 1 µmol/L, QIK” value is reported as 6%. The “%-inhibition, p38α” value in data set [9] (setting [18]) is given as 10%. The “%-inhibition, MARK1” value in [11] (setting [18]) was -9%. Also, the “%-inhibition CDC2/CycB1” value in data set [12] (setting [18]) is on record as 10%. Moreover, the “%-inhibition at 1 µmol/L, PKN1” value in data set [13] (setting [18]) is given as -0.378%. The “%-inhibition CDK3/CycE1” value in data set [14] (setting [18]) is given as -4.34%. For the same molecule, the “%-inhibition at 1 µmol/L, HGK” value in [15] (setting [18]) is on record as 26%.
